The source of these data is US20230159532A1, “PARATHYROID HORMONE (PTH) RECEPTOR ANTAGONISTS AND USES THEREOF” (Crinetics Pharmaceuticals, Inc., priority 2021, published 2023).

SMILES strings stand for the structures.

A word on the Ki: it is the dissociation constant of the complex between target and ligand, obtained from inhibition or displacement.

The target of the experiment is T1, human PTHR1 receptor (Homo sapiens, UniProt Q03431).
T1 construct: purchased Eurofins HTS030M
T1 sequence (Q03431 27-593): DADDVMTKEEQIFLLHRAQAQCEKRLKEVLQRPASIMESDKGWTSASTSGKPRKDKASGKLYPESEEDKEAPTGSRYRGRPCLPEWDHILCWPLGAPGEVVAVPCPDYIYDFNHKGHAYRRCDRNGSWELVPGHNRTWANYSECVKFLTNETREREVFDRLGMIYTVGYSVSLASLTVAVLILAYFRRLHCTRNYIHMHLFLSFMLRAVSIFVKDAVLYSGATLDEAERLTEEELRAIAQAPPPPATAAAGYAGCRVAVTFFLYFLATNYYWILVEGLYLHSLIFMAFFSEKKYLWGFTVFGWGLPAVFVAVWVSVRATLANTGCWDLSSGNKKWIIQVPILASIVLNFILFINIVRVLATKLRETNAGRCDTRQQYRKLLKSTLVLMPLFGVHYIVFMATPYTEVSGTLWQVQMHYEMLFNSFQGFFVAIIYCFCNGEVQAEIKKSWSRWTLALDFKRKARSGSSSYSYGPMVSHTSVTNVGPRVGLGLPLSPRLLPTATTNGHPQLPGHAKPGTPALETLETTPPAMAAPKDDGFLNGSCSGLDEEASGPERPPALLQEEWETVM
The experiment is described as follows: Competitive antagonist binding assay for hPTH-R1 (radioactive competition binding, SPA beads). The following applies: human PTHR1 membranes, [125I]-[Nle8,18,Tyr34]-PTH(1-34) 0.2 nM, 90 minutes at room temperature; read-out: hPTHR1 Ki. The essentials:
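Displacement of 0.2 nM radioiodinated [Nle8,18,Tyr34]-PTH(1-34) from membrane-bound human PTHR1 measured by scintillation proximity after 90 min at room temperature. Compounds typically 0-10,000 nM final, pH 7.4 HEPES/Mg/Ca buffer with BSA and detergent. Ki calculated from competition data.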
In the case of `CCN1C(=O)N(c2c(F)cc(NCCNCCNC(C)=O)cc2F)c2cc(C#N)ccc2-c2cc(Cl)cnc21` [1-168, N-[2-({2-[(4-{4-chloro-13-cyano-8-ethyl-9-oxo-6,8,10-triazatricyclo[9.4.0.0^2,7]pentadeca-1(15),2(7),3,5,11,13-hexaen-10-yl}-3,5-difluorophenyl)amino]ethyl}amino)ethyl]acetamide], the inhibitory constant (Ki) was under 100 nM.

As for `CCN1C(=O)N(c2c(F)cc(NCCNC[C@H]3CCC(=O)N3)cc2F)c2cc(C#N)ccc2-c2cc(Cl)cnc21` [1-170, 4-chloro-10-(2,6-difluoro-4-{[2-({[(2R)-5-oxopyrrolidin-2-yl]methyl}amino)ethyl]amino}phenyl)-8-ethyl-9-oxo-6,8,10-triazatricyclo[9.4.0.0^2,7]pentadeca-1(11),2(7),3,5,12,14-hexaene-13-carbonitrile], the Ki was under 100 nM.

Regarding `CCN1C(=O)N(c2c(F)cc(NCCNC[C@H](O)CO)cc2F)c2cc(C#N)ccc2-c2cc(Cl)cnc21` [1-171, 4-chloro-10-{4-[(2-{[(2S)-2,3-dihydroxypropyl]amino}ethyl)amino]-2,6-difluorophenyl}-8-ethyl-9-oxo-6,8,10-triazatricyclo[9.4.0.0^2,7]pentadeca-1(11),2(7),3,5,12,14-hexaene-13-carbonitrile], the inhibitory constant (Ki) was under 100 nM.

With `CCN1C(=O)N(c2c(F)cc(NCCNCCNC(=O)NC)cc2F)c2cc(C#N)ccc2-c2cc(F)cnc21` [1-172, 1-[2-({2-[(4-{13-cyano-8-ethyl-4-fluoro-9-oxo-6,8,10-triazatricyclo[9.4.0.0^2,7]pentadeca-1(11),2(7),3,5,12,14-hexaen-10-yl}-3,5-difluorophenyl)amino]ethyl}amino)ethyl]-3-methylurea], the Ki is under 100 nM.

With `CCN1C(=O)N(c2c(F)cc(NCCN[C@H](C)CO)cc2F)c2cc(C#N)ccc2-c2cc(Cl)cnc21` [1-173, 4-chloro-10-{2,6-difluoro-4-[(2-{[(2R)-1-hydroxypropan-2-yl]amino}ethyl)amino]phenyl}-8-ethyl-9-oxo-6,8,10-triazatricyclo[9.4.0.0^2,7]pentadeca-1(11),2(7),3,5,12,14-hexaene-13-carbonitrile], the Ki was under 100 nM.

Regarding `CCN1C(=O)N(c2c(F)cc(NCCNC[C@@H]3CCC(=O)N3)cc2F)c2cc(C#N)ccc2-c2cc(Cl)cnc21` [1-174, 4-chloro-10-(2,6-difluoro-4-{[2-({[(2S)-5-oxopyrrolidin-2-yl]methyl}amino)ethyl]amino}phenyl)-8-ethyl-9-oxo-6,8,10-triazatricyclo[9.4.0.0^2,7]pentadeca-1(11),2(7),3,5,12,14-hexaene-13-carbonitrile], the Ki is under 100 nM.

`CCN1C(=O)N(c2c(F)cc(NCCNCCCS(=O)(=O)O)cc2F)c2cc(C#N)ccc2-c2cc(Cl)cnc21` [1-175, 3-({2-[(4-{4-chloro-13-cyano-8-ethyl-9-oxo-6,8,10-triazatricyclo[9.4.0.0^2,7]pentadeca-1(11),2(7),3,5,12,14-hexaen-10-yl}-3,5-difluorophenyl)amino]ethyl}amino)propane-1-sulfonic acid]: the inhibitory constant (Ki) is under 100 nM.

Turning to `CCN1C(=O)N(c2c(F)cc(NCCNCC3CCC(=O)N3)cc2F)c2cc(C#N)ccc2-c2cc(Cl)cnc21` (centres unmarked) [1-176, 4-chloro-10-{2,6-difluoro-4-[(2-{[(5-oxopyrrolidin-2-yl)methyl]amino}ethyl)amino]phenyl}-8-ethyl-9-oxo-6,8,10-triazatricyclo[9.4.0.0^2,7]pentadeca-1(15),2(7),3,5,11,13-hexaene-13-carbonitrile], the Ki is under 100 nM.

In the case of `CCN1C(=O)N(c2c(F)cc(NCCN[C@@H]3CC[C@@H]3O)cc2F)c2cc(C#N)ccc2-c2cc(Cl)cnc21` [1-177, 4-chloro-10-{2,6-difluoro-4-[(2-{[(1R,2S)-2-hydroxycyclobutyl]amino}ethyl)amino]phenyl}-8-ethyl-9-oxo-6,8,10-triazatricyclo[9.4.0.0^2,7]pentadeca-1(11),2(7),3,5,12,14-hexaene-13-carbonitrile], the inhibition constant (Ki) was under 100 nM.

As for `CCN1C(=O)N(c2c(F)cc(NCCNCCC(=O)O)cc2F)c2cc(C#N)ccc2-c2cc(Cl)cnc21` [1-178, 3-({2-[(4-{4-chloro-13-cyano-8-ethyl-9-oxo-6,8,10-triazatricyclo[9.4.0.0^2,7]pentadeca-1(11),2(7),3,5,12,14-hexaen-10-yl}-3,5-difluorophenyl)amino]ethyl}amino)propanoic acid], the inhibition constant (Ki) is under 100 nM.

Regarding `CCN1C(=O)N(c2c(F)cc(NCCN[C@@H]3CC[C@H]3O)cc2F)c2cc(C#N)ccc2-c2cc(Cl)cnc21` [1-179, 4-chloro-10-{2,6-difluoro-4-[(2-{[(1R,2R)-2-hydroxycyclobutyl]amino}ethyl)amino]phenyl}-8-ethyl-9-oxo-6,8,10-triazatricyclo[9.4.0.0^2,7]pentadeca-1(11),2(7),3,5,12,14-hexaene-13-carbonitrile], the Ki is under 100 nM.

`CCN1C(=O)N(c2c(F)cc(NCCNC[C@H](C)O)cc2F)c2cc(C#N)ccc2-c2cc(Cl)cnc21` [1-180, 4-chloro-10-{2,6-difluoro-4-[(2-{[(2S)-2-hydroxypropyl]amino}ethyl)amino]phenyl}-8-ethyl-9-oxo-6,8,10-triazatricyclo[9.4.0.0^2,7]pentadeca-1(11),2(7),3,5,12,14-hexaene-13-carbonitrile]: the Ki was under 100 nM.

For `CCN1C(=O)N(c2c(F)cc(NCCNCCOCCO)cc2F)c2cc(C#N)ccc2-c2cc(Cl)cnc21` [1-181, 4-chloro-10-{2,6-difluoro-4-[(2-{[2-(2-hydroxyethoxy)ethyl]amino}ethyl)amino]phenyl}-8-ethyl-9-oxo-6,8,10-triazatricyclo[9.4.0.0^2,7]pentadeca-1(11),2(7),3,5,12,14-hexaene-13-carbonitrile], the Ki was under 100 nM.

`CCN1C(=O)N(c2c(F)cc(N3CCC(NCCO)C3)cc2F)c2cc(C#N)ccc2-c2cc(Cl)cnc21` (centres unmarked) [1-182, 4-chloro-10-(2,6-difluoro-4-{3-[(2-hydroxyethyl)amino]pyrrolidin-1-yl}phenyl)-8-ethyl-9-oxo-6,8,10-triazatricyclo[9.4.0.0^2,7]pentadeca-1(11),2(7),3,5,12,14-hexaene-13-carbonitrile]: the inhibition constant (Ki) is under 100 nM.

In the case of `CCN1C(=O)N(c2c(F)cc(NCCNC[C@@H](O)CO)cc2F)c2cc(C#N)ccc2-c2cc(Cl)cnc21` [1-183, 4-chloro-10-{4-[(2-{[(2R)-2,3-dihydroxypropyl]amino}ethyl)amino]-2,6-difluorophenyl}-8-ethyl-9-oxo-6,8,10-triazatricyclo[9.4.0.0^2,7]pentadeca-1(11),2(7),3,5,12,14-hexaene-13-carbonitrile], the Ki is under 100 nM.

In the case of `CCN1C(=O)N(c2c(F)cc(NCCN[C@@H]3CC[C@@H]3O)cc2F)c2cc(C#N)ccc2-c2cc(C(F)(F)F)cnc21` [1-184, 10-{2,6-difluoro-4-[(2-{[(1R,2S)-2-hydroxycyclobutyl]amino}ethyl)amino]phenyl}-8-ethyl-9-oxo-4-(trifluoromethyl)-6,8,10-triazatricyclo[9.4.0.0^2,7]pentadeca-1(11),2(7),3,5,12,14-hexaene-13-carbonitrile], the Ki is under 100 nM.

For `CCN1C(=O)N(c2c(F)cc(NCCN[C@@H](C)CO)cc2F)c2cc(C#N)ccc2-c2cc(Cl)cnc21` [1-185, 4-chloro-10-{2,6-difluoro-4-[(2-{[(2S)-1-hydroxypropan-2-yl]amino}ethyl)amino]phenyl}-8-ethyl-9-oxo-6,8,10-triazatricyclo[9.4.0.0^2,7]pentadeca-1(11),2(7),3,5,12,14-hexaene-13-carbonitrile], the inhibition constant Ki was under 100 nM.

With `CCN1C(=O)N(c2c(F)cc(NCCNC[C@@H](C)O)cc2F)c2cc(C#N)ccc2-c2cc(Cl)cnc21` [1-186, 4-chloro-10-{2,6-difluoro-4-[(2-{[(2R)-2-hydroxypropyl]amino}ethyl)amino]phenyl}-8-ethyl-9-oxo-6,8,10-triazatricyclo[9.4.0.0^2,7]pentadeca-1(11),2(7),3,5,12,14-hexaene-13-carbonitrile], the inhibition constant (Ki) was under 100 nM.

Regarding `CCN1C(=O)N(c2c(F)cc(NCCN[C@H]3C[C@H](O)C3)cc2F)c2cc(C#N)ccc2-c2cc(Cl)cnc21` [1-187, 4-chloro-10-{2,6-difluoro-4-[(2-{[(1r,3r)-3-hydroxycyclobutyl]amino}ethyl)amino]phenyl}-8-ethyl-9-oxo-6,8,10-triazatricyclo[9.4.0.0^2,7]pentadeca-1(11),2(7),3,5,12,14-hexaene-13-carbonitrile], the inhibition constant Ki was under 100 nM.

On to `CCN1C(=O)N(c2c(F)cc(NCCNCCOC(N)=O)cc2F)c2cc(C#N)ccc2-c2cc(Cl)cnc21` [1-189, 2-({2-[(4-{4-chloro-13-cyano-8-ethyl-9-oxo-6,8,10-triazatricyclo[9.4.0.0^2,7]pentadeca-1(11),2(7),3,5,12,14-hexaen-10-yl}-3,5-difluorophenyl)amino]ethyl}amino)ethyl carbamate], for which the inhibition constant Ki is under 100 nM.
